{
  "source": "paper PMC5183552",
  "about": "(Neuropharmacology, 2016)",
  "key": {"mouse A2AAR": {"molecular_target": "mouse A2AAR (Mus musculus, UniProt Q60613)", "sequence (Q60613 whole entry)": "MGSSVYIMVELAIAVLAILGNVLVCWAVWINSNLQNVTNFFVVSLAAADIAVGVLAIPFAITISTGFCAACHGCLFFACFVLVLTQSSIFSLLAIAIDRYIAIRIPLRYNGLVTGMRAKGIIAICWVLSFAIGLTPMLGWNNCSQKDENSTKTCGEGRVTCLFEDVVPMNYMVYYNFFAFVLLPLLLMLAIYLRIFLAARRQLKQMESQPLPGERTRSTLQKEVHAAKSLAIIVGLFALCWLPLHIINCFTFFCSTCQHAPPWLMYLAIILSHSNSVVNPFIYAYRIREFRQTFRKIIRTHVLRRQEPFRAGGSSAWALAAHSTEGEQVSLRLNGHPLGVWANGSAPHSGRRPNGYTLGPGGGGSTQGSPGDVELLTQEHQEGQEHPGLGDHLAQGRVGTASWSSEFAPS", "details": "read-out: Ki, mouse A2AAR, 2006, cited from earlier work"}, "mouse A1AR [1]": {"molecular_target": "T1, mouse A1AR (Mus musculus, UniProt Q60612)", "T1 sequence (Q60612 1-326)": "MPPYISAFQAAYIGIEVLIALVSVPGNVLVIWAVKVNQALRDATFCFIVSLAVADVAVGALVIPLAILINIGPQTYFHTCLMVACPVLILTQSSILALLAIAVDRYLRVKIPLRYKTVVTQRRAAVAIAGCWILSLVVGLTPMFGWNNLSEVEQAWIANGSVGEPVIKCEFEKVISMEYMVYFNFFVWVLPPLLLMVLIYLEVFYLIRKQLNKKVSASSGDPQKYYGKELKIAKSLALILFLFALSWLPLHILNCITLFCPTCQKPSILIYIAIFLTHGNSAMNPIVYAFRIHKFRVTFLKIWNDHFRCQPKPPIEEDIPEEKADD", "details": "read-out: Ki, mouse A1AR, cited from earlier work"}, "mouse A3AR [2]": {"molecular_target": "T2, mouse A3AR (Mus musculus, UniProt Q61618)", "T2 sequence (Q61618 1-319)": "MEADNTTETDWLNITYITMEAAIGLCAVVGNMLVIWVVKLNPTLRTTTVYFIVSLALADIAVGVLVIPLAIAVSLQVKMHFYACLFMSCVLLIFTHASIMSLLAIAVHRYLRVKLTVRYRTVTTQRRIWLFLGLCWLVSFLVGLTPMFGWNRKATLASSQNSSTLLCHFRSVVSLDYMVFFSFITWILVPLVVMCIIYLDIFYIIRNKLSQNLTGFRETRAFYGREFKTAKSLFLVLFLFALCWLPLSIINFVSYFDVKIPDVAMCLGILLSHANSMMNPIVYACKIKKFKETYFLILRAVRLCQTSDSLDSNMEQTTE", "details": "cited from earlier work"}, "mouse A1AR [3]": {"molecular_target": "T1, mouse A1AR", "assay": "Radioligand binding, recombinant mouse A1AR in HEK-293 membranes"}, "mouse A3AR [4]": {"molecular_target": "T2, mouse A3AR", "assay": "Radioligand binding, recombinant mouse A3AR in HEK-293 membranes"}, "mice [5]": {"tested_on": "mice", "assay": "Body temperature", "assay_type": "in vivo, mouse"}, "mice [6]": {"tested_on": "mice", "assay": "Indirect calorimetry", "assay_type": "in vivo, mouse", "details": "i.p."}, "mice [7]": {"tested_on": "mice", "assay": "Temperature gradient", "assay_type": "in vivo, mouse"}, "Human A2AAR": {"molecular_target": "Human A2AAR (Homo sapiens, UniProt P29274)", "sequence (P29274 whole entry)": "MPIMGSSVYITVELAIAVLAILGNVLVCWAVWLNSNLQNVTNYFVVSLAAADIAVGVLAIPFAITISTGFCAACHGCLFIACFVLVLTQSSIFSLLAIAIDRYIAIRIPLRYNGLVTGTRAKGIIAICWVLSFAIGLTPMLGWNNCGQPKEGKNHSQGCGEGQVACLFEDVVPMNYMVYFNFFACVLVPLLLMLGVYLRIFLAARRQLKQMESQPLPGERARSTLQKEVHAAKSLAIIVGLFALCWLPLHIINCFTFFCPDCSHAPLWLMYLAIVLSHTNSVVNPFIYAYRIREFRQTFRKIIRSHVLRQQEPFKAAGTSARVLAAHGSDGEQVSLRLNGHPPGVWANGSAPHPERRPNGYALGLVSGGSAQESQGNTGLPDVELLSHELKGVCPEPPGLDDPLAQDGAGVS", "details": "read-out: Ki, human A2AAR; ref Franchetti et al, 2009; cited from earlier work"}, "Human A3AR": {"molecular_target": "T3, Human A3AR (Homo sapiens, UniProt P0DMS8)", "T3 sequence (P0DMS8 1-318)": "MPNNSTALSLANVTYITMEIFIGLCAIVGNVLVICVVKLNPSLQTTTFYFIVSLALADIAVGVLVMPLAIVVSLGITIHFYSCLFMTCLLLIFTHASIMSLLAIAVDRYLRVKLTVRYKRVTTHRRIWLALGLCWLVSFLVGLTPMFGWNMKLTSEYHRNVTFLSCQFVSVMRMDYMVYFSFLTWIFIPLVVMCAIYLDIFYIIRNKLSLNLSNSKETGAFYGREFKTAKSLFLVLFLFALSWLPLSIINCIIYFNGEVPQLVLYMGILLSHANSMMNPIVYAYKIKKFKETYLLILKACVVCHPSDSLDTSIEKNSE", "details": "read-out: Ki, human A3AR; ref Franchetti et al, 2009; cited from earlier work"}, "mouse": {"tested_on": "mouse", "details": "0.5 mg/kg, ref Luongo et al, 2012; cited from earlier work"}, "[8]": {"details": "500–3500 mg/kg, i.p.; ref Zhang et al, 2006; cited from earlier work"}, "[9]": {"details": "C57BL/6J mice, 0.3–10 mg/kg, i.p."}, "[10]": {"details": "Adora3−/− mice, 3 mg/kg, before the Tb nadir"}, "[11]": {"details": "C57BL/6J mice, 100 µg/mouse (~3.3 mg/kg), i.c.v."}},
  "note": "Where two headings read alike, the source gives them in different places.",
  "data": [
    {"smiles": "CNC(=O)[C@H]1O[C@@H](n2cnc3c(NCc4cccc(I)c4)ncnc32)[C@H](O)[C@@H]1O", "note": "[IB-MECA]", "values": [
      {"measurement": "Ki", "setting": "mouse A2AAR; ref Ge et al", "value": "~1000", "unit": "nM"}
    ]},
    {"smiles": "OC[C@H]1O[C@@H](n2cnc3c(NC4CCCC4)nc(Cl)nc32)[C@H](O)[C@@H]1O", "note": "[CCPA, 2-chloro-N^6-cyclopentyladenosine]", "values": [
      {"measurement": "Ki", "setting": "mouse A1AR [1]; ref Alnouri et al, 2015", "value": 0.27, "unit": "nM"},
      {"measurement": "Ki", "setting": "mouse A3AR [2]; read-out: Ki, mouse A3AR, ref Alnouri et al, 2015", "value": 16, "unit": "nM"}
    ]},
    {"smiles": "O[C@@H]1[C@H](O)[C@@H](CCl)O[C@H]1n1cnc2c(NC3CC4CCC3C4)ncnc21", "note": "(mixture of isomers) [Cl-ENBA, (±)-5'-chloro-5'-deoxy-N^6-endo-norbornyladenosine]", "values": [
      {"measurement": "Ki", "setting": "mouse A1AR [3]; read-out: Ki, mouse A1AR, current results, ±SEM", "value": "0.2 ± 0.01", "unit": "nM"},
      {"measurement": "Ki", "setting": "mouse A3AR [4]; read-out: Ki, mouse A3AR, current results, ±SEM", "value": "2410 ± 325", "unit": "nM"},
      {"measurement": "Effect of i.c.v. dosing on Tb in Adora1−/− mice", "setting": "mice [5]; 15 µg/mouse, i.c.v.", "value": "greatly diminished"},
      {"measurement": "Hypothermia in mast cell-deficient Kit W-sh/W-sh mice", "setting": "mice [5]; 1 mg/kg, i.p.", "value": "largely intact"},
      {"measurement": "Hypothermia in Adora1−/− mice vs wild type", "setting": "mice [5]; 3 mg/kg, i.p.", "value": "largely abolished"},
      {"measurement": "Hypothermia in Adora1−/−;Adora3−/− mice", "setting": "mice [5]; 3 mg/kg, i.p.", "value": "completely lost"},
      {"measurement": "Hypothermia in Adora3−/− mice vs wild type", "setting": "mice [5]; 3 mg/kg, i.p.", "value": "remained present"},
      {"measurement": "Hypothermia in mast cell-deficient Kit W-sh/W-sh mice", "setting": "mice [5]; 3 mg/kg, i.p.", "value": "significantly attenuated"},
      {"measurement": "Hypothermia after pretreatment with raclopride", "setting": "mice [5]; 3 mg/kg, i.p., raclopride 1 mg/kg, data not shown", "value": "not affected"},
      {"measurement": "Effect on Tb", "setting": "mice [5]; [9]", "value": "dose-dependent hypothermia"},
      {"measurement": "Effect on physical activity", "setting": "mice [5]; [9]", "value": "hypoactivity"},
      {"measurement": "Time of TEE nadir", "setting": "mice [6]; Adora3−/− mice, 3 mg/kg", "value": "~ 50 min"},
      {"measurement": "Time of Tb nadir", "setting": "mice [6]; Adora3−/− mice, 3 mg/kg", "value": "~ 100 min"},
      {"measurement": "Effect on metabolic rate (total energy expenditure)", "setting": "mice [6]; [10]", "value": "reduced metabolic rate"},
      {"measurement": "Effect on physical activity", "setting": "mice [6]; [10]", "value": "reduced"},
      {"measurement": "Environmental temperature preference in thermal gradient", "setting": "mice [7]; Adora3−/− mice, 3 mg/kg, i.p.", "value": "modest preference for a cooler place"},
      {"measurement": "Ki", "setting": "Human A2AAR", "value": 1340, "unit": "nM"},
      {"measurement": "Ki", "setting": "Human A3AR", "value": 1290, "unit": "nM"},
      {"measurement": "Anti-nociceptive effect", "setting": "mouse", "value": "anti-nociceptive"}
    ]},
    {"smiles": "CCNC(=O)[C@H]1O[C@@H](n2cnc3c(N)nc(NCCc4ccc(CCC(=O)O)cc4)nc32)[C@H](O)[C@@H]1O", "note": "[CGS21680]", "values": [
      {"measurement": "Ki", "setting": "mouse A1AR [3]", "value": "193 ± 38", "unit": "nM"},
      {"measurement": "Ki", "setting": "mouse A3AR [4]", "value": "48 ± 11", "unit": "nM"}
    ]},
    {"smiles": "Nc1ncnc2c1ncn2[C@@H]1O[C@H](COP(=O)(O)O)[C@@H](O)[C@H]1O", "note": "[AMP, adenosine 5'-monophosphate]", "values": [
      {"measurement": "Hypothermia from i.c.v. dosing in Adora1−/− mice", "setting": "mice [5]; 100 µg/mouse (~3.3 mg/kg), i.c.v.", "value": "not attenuated"},
      {"measurement": "Hypothermia in Adora1−/− mice", "setting": "mice [5]; 100 mg/kg, i.p.", "value": "intact"},
      {"measurement": "Hypothermia in Adora1−/−;Adora3−/− double knockout mice", "setting": "mice [5]; 100 mg/kg, i.p.", "value": "intact"},
      {"measurement": "Hypothermia in Adora3−/− mice", "setting": "mice [5]; 100 mg/kg, i.p.", "value": "intact"},
      {"measurement": "Hypothermia in Kit W-sh/W-sh mice", "setting": "mice [5]; 100 mg/kg, i.p.", "value": "partially intact"},
      {"measurement": "Hypothermia after pretreatment with raclopride", "setting": "mice [5]; AMP 100 mg/kg, i.p., raclopride 2 mg/kg, data not shown", "value": "did not block"},
      {"measurement": "Hypothermia after pretreatment with pyrilamine", "setting": "mice [5]; Adora1−/− mice, AMP 100 mg/kg, i.p., pyrilamine 10 mg/kg, data not shown", "value": "did not ablate"},
      {"measurement": "Effect on Tb, i.c.v. infusion", "setting": "mice [5]; [11]", "value": "drop in Tb that was comparable to a 30-fold larger (100 mg/kg) systemic dose"},
      {"measurement": "Effect on metabolic rate (total energy expenditure)", "setting": "mice [6]; C57BL/6J mice, 100 mg/kg", "value": "drop in metabolic rate that preceded the hypothermia"},
      {"measurement": "Time of TEE nadir", "setting": "mice [6]; C57BL/6J mice, 100 mg/kg", "value": "~ 40 min"},
      {"measurement": "Time of Tb nadir", "setting": "mice [6]; C57BL/6J mice, 100 mg/kg", "value": "~ 60 min"},
      {"measurement": "Ambient temperature preference", "setting": "mice [7]; 100 mg/kg, i.p., not shown", "value": "did not observe a clear change"},
      {"measurement": "Activity in thermal gradient", "setting": "mice [7]; [11]", "value": "without a significant drop in activity"},
      {"measurement": "Activity in thermal gradient", "setting": "mice [7]; C57BL/6J mice, 300 mg/kg, i.p.", "value": "became immobile"},
      {"measurement": "Position in thermal gradient", "setting": "mice [7]; C57BL/6J mice, 300 mg/kg, i.p.", "value": "moved to a cooler region"},
      {"measurement": "Torpor induction by large doses", "setting": "[8]", "value": "induce torpor"}
    ]},
    {"smiles": "CCCn1c(=O)c2[nH]c(C3CCCC3)nc2n(CCC)c1=O", "note": "[DPCPX]", "values": [
      {"measurement": "Ki", "setting": "mouse A1AR [1]; ref Kreckler et al, 2006", "value": 1.5, "unit": "nM"},
      {"measurement": "Ki", "setting": "mouse A2AAR; ref Kreckler et al", "value": 598, "unit": "nM"},
      {"measurement": "% inhibition at 10 µM, mouse A3AR", "setting": "mouse A3AR [2]; 10 µM, ref Kreckler et al, 2006", "value": 0, "unit": "%"}
    ]}
  ]
}
